The supplement of paper PMC10307832

What was measured:
Assay in all cases: relative viability (nuclei count vs DMSO), 5 days (fraction); higher = more cells survive
KN-93 + OSI-027 = compound: CN(C/C=C/C1=CC=C(C=C1)Cl)CC2=CC=CC=C2N(CCO)S(=O)(=O)C3=CC=C(C=C3)OC [KN-93] + COc1cccc2cc(-c3nc([C@H]4CC[C@H](C(=O)O)CC4)n4ncnc(N)c34)[nH]c12 [OSI-027] (partner 0.5 µM)
Procedure, shortened: (§1)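 Five library-drug doses in √10 steps were combined with a fixed anchor-drug dose, or a single drug was given alone, by pin tool to lung cancer cell lines in 1536-well plates the day after seeding. Nuclei were stained and counted after 5 days. Relative viability is the nuclei count in treated wells over that in vehicle wells, taken as the median of duplicate plates.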

KN-93 + Crizotinib = compound: CN(C/C=C/C1=CC=C(C=C1)Cl)CC2=CC=CC=C2N(CCO)S(=O)(=O)C3=CC=C(C=C3)OC [KN-93] + C[C@@H](Oc1cc(-c2cnn(C3CCNCC3)c2)cnc1N)c1c(Cl)ccc(F)c1Cl [Crizotinib] (partner 1 µM)
Procedure, shortened: as §1

KN-93 + Alpelisib = compound: CN(C/C=C/C1=CC=C(C=C1)Cl)CC2=CC=CC=C2N(CCO)S(=O)(=O)C3=CC=C(C=C3)OC [KN-93] + Cc1nc(NC(=O)N2CCC[C@H]2C(N)=O)sc1-c1ccnc(C(C)(C)C(F)(F)F)c1 [Alpelisib] (partner 2 µM)
Procedure, shortened: as §1

KN-93 + Foretinib = compound: CN(C/C=C/C1=CC=C(C=C1)Cl)CC2=CC=CC=C2N(CCO)S(=O)(=O)C3=CC=C(C=C3)OC [KN-93] + COc1cc2c(Oc3ccc(NC(=O)C4(C(=O)Nc5ccc(F)cc5)CC4)cc3F)ccnc2cc1OCCCN1CCOCC1 [Foretinib] (partner 0.25 µM)
Procedure, shortened: as §1

KN-93 + Phenformin = compound: CN(C/C=C/C1=CC=C(C=C1)Cl)CC2=CC=CC=C2N(CCO)S(=O)(=O)C3=CC=C(C=C3)OC [KN-93] + N=C(N)NC(=N)NCCc1ccccc1 [Phenformin] (partner 250 µM)
Procedure, shortened: as §1

Cell Line | relative viability (KN-93 + OSI-027; first compound 0.08 µM) | relative viability (KN-93 + OSI-027; first compound 0.253 µM) | relative viability (KN-93 + OSI-027; first compound 2.53 µM) | relative viability (KN-93 + OSI-027; first compound 8 µM) | relative viability (KN-93 + Crizotinib; first compound 0.08 µM) | relative viability (KN-93 + Crizotinib; first compound 0.253 µM) | relative viability (KN-93 + Crizotinib; first compound 2.53 µM) | relative viability (KN-93 + Crizotinib; first compound 8 µM) | relative viability (KN-93 + Alpelisib; first compound 0.08 µM) | relative viability (KN-93 + Alpelisib; first compound 0.253 µM) | relative viability (KN-93 + Alpelisib; first compound 2.53 µM) | relative viability (KN-93 + Alpelisib; first compound 8 µM) | relative viability (KN-93 + Foretinib; first compound 0.08 µM) | relative viability (KN-93 + Foretinib; first compound 0.253 µM) | relative viability (KN-93 + Foretinib; first compound 2.53 µM) | relative viability (KN-93 + Foretinib; first compound 8 µM) | relative viability (KN-93 + Phenformin; first compound 0.08 µM) | relative viability (KN-93 + Phenformin; first compound 0.253 µM) | relative viability (KN-93 + Phenformin; first compound 2.53 µM) | relative viability (KN-93 + Phenformin; first compound 8 µM)
NCI-H2087 | 0.481 | 0.566 | 0.586 | 0.491 | 0.678 | 1.01 | 0.84 | 0.55 | 0.879 | 1.21 | 0.933 | 0.532 | 0.983 | 1.31 | 1.21 | 0.697 | 0.427 | 0.648 | 0.57 | 0.442
NCI-H2126 | 0.691 | 0.557 | 0.638 | 0.674 | 1.04 | 1.14 | 1.07 | 0.981 | 0.81 | 0.725 | 0.769 | 0.727 | 1.14 | 0.899 | 1.23 | 1.11 | 0.524 | 0.483 | 0.502 | 0.481
NCI-H2170 | 0.713 | 0.712 | 0.728 | 0.567 | 1.13 | 1.66 | 1.42 | 0.931 | 0.782 | 0.876 | 0.928 | 0.65 | 0.973 | 1.23 | 0.903 | 0.892 | 0.434 | 0.419 | 0.392 | 0.402
NCI-H2228 | 0.55 | 0.443 | 0.567 | 0.237 | 0.445 | 0.48 | 0.526 | 0.248 | 0.704 | 0.553 | 0.722 | 0.236 | 0.872 | 0.891 | 0.862 | 0.506 | 0.229 | 0.347 | 0.412 | 0.325
NCI-H2347 | 0.379 | 0.318 | 0.371 | 0.339 | 0.686 | 0.731 | 0.739 | 0.463 | 1 | 1.09 | 1.07 | 0.764 | 1.12 | 0.656 | 1.25 | 0.593 | 0.517 | 0.376 | 0.55 | 0.362
NCI-H2405 | 0.62 | 0.584 | 0.697 | 0.606 | 0.853 | 0.832 | 0.873 | 0.665 | 0.831 | 0.732 | 0.766 | 0.526 | 1.05 | 0.995 | 1.01 | 0.75 | 0.379 | 0.479 | 0.718 | 0.354
NCI-H3122 | 0.967 | 1.04 | 1.04 | 0.631 | 0.287 | 0.31 | 0.299 | 0.264 | 0.829 | 0.659 | 0.766 | 0.585 | 1.05 | 1.13 | 1.11 | 0.912 | 0.384 | 0.381 | 0.901 | 0.326
PC-3 [JPC-3] | 0.695 | 0.749 | 0.771 | 0.55 | 0.953 | 1.2 | 1.06 | 0.886 | 0.999 | 1.04 | 1.01 | 0.94 | 0.98 | 1.14 | 1 | 0.784 | 0.437 | 0.46 | 0.494 | 0.441
PC-14 | 0.522 | 0.892 | 0.806 | 0.519 | 0.89 | 0.842 | 0.953 | 0.585 | 0.753 | 1.01 | 1.14 | 0.839 | 0.797 | 0.988 | 1.12 | 1.01 | 0.593 | 0.685 | 0.596 | 0.547
RERF-LC-KJ | 0.557 | 0.509 | 0.588 | 0.353 | 0.803 | 0.848 | 0.917 | 0.639 | 0.682 | 0.754 | 0.766 | 0.634 | 0.791 | 0.778 | 1.05 | 0.833 | 0.365 | 0.409 | 0.462 | 0.307
SK-LU-1 | 0.334 | 0.328 | 0.343 | 0.224 | 0.834 | 1.26 | 0.915 | 0.673 | 1.19 | 1.47 | 0.926 | 0.471 | 0.768 | 1.05 | 0.938 | 0.48 | 0.494 | 0.811 | 0.475 | 0.391
SK-MES-1 | 0.517 | 0.547 | 0.605 | 0.415 | 1.05 | 0.979 | 1.27 | 0.8 | 0.737 | 0.977 | 0.864 | 0.862 | 0.857 | 0.656 | 0.937 | 0.999 | 0.554 | 0.751 | 0.699 | 0.571
SW 1573 | 0.473 | 0.689 | 0.584 | 0.252 | 0.766 | 0.926 | 0.822 | 0.33 | 0.87 | 0.805 | 0.933 | 0.632 | 0.863 | 0.91 | 0.933 | 1 | 0.319 | 0.389 | 0.454 | 0.275
UMC-11 | 0.442 | 0.526 | 0.488 | 0.314 |  | 0.901 | 0.413 | 0.457 |  | 1.24 | 1.27 | 0.613 | 0.97 | 1.28 | 1.23 | 0.452 | 0.381 | 0.365 | 0.355 | 0.277
